Experimental data reported in patent US20110269755A1, “COMPOSITIONS AND METHODS FOR TREATING VASCULAR, AUTOIMMUNE, AND INFLAMMATORY DISEASES” (Aspreva International Ltd., priority 2006, published 2011).
Values after ≈ are worked out from the molar mass of the structure shown. “Also recorded” adds a separate entry of the source.

Key:
Ldlr−/− mice [1] = test: Serum/plasma lipid levels in Ldlr−/− mice on Western-type diet, MMF alone; format: in vivo
From the text: (§1) Additional secondary endpoints examined were plasma levels of cholesterol, HDL cholesterol, triglycerides, and phospholipids.

allograft survival = details: mice; cited from earlier work
Ldlr−/− mice [2] = test: Atherosclerosis in Ldlr−/− mice on Western-type diet, plaque area at the aortic root, MMF alone; format: in vivo; details: for reduction of atherosclerosis (AS), percentage of aortic sinus occluded by plaque: 12 weeks
From the text: as §1

[3] = cited from earlier work
[4] = following oral or intravenous administration; cited from earlier work
[5] = system: antibody response to sheep red blood cells; details: mice; cited from earlier work
[6] = system: endothelial nitric oxide synthase (eNOS); details: in vitro, cited from earlier work

COc1c(C)c2c(c(O)c1C/C=C(\C)CCC(=O)OCCN1CCOCC1)C(=O)OC2 [MMF, morpholinoethyl E-6-(1,3-dihydro-4-hydroxy-6-methoxy-7-methyl-3-oxo-5-isobenzofuranyl)-4-methyl-4-hexenoate]
HDL cholesterol levels (Ldlr−/− mice [1]; Ldlr−/− mice): no effect | total cholesterol levels (Ldlr−/− mice [1]; Ldlr−/− mice): no effect | serum cholesterol levels (Ldlr−/− mice [1]; male Ldlr−/− mice): did not lower | serum phospholipid levels (Ldlr−/− mice [1]; male Ldlr−/− mice): lower; also recorded: decreases | serum triglyceride levels (Ldlr−/− mice [1]; male Ldlr−/− mice): lower; also recorded: decreases | effective dose for in vivo prolongation of allograft survival (allograft survival): about 80 mg/kg/day | reduction of atherosclerosis (AS), percentage of aortic sinus occluded by plaque (Ldlr−/− mice [2]; MMF 6 mg/kg/day in diet, male Ldlr−/− mice): 18% | reduction of atherosclerosis (AS), percentage of aortic sinus occluded by plaque (Ldlr−/− mice [2]; MMF 15 mg/kg/day in diet, male Ldlr−/− mice): 30% | reduction of atherosclerosis (AS), percentage of aortic sinus occluded by plaque (Ldlr−/− mice [2]; MMF 30 mg/kg/day in diet, male Ldlr−/− mice): 28% | reduction of atherosclerosis (AS), percentage of aortic sinus occluded by plaque (Ldlr−/− mice [2]; MMF 100 mg/kg/day in diet, male Ldlr−/− mice): 64% | dose response of the reduction of atherosclerosis (Ldlr−/− mice [2]; MMF 6, 15, 30 and 100 mg/kg/day, male Ldlr−/− mice): dose-dependent | effect on atherosclerosis / atheromatous plaques (Ldlr−/− mice [2]; MMF alone, doses lower than used for preventing organ rejection, Ldlr−/− mice): reduce atherosclerosis; also recorded: reduction of atheromatous plaques | solubility ([3]; in 5% dextrose solution): 65.8 mg/mL (≈ 152 mM) | solubility in water ([3]; water): insoluble | metabolism to the active metabolite MPA [4]: rapidly and completely metabolized

COc1c(C)c2c(c(O)c1C/C=C(\C)CCC(=O)O)C(=O)OC2 [MPA, mycophenolic acid]
ED50 for inhibiting the antibody reaction [5]: about 33 mg/kg/day | trend in aortic root lesions as a function of serum MPA levels (linear regression) (Ldlr−/− mice [2]; Ldlr−/− mice given MMF): statistically significant decreasing trend

CC[C@H](C)C(=O)O[C@H]1C[C@@H](C)C=C2C=C[C@H](C)[C@H](CC[C@@H]3C[C@@H](O)CC(=O)O3)[C@H]21 [lovastatin]
upregulation of eNOS expression ([6]; cholesterol clamped conditions): almost fourfold | downregulation of eNOS by oxidized LDL [6]: completely prevent
